Structures can show the parent of a compound that is named as a salt.
test system: MCH58 fibroblasts; assay: Glucose versus galactose cell growth screen (metabolic state-dependent lethality); settings: not given

Molecule | Sglu/gal (log10 fold change) Score
C[CH2][Hg][S]c1ccccc1C(=O)[O-].[Na+] [thimerosal] | −0.22
[O-][n+]1ccccc1[S-].[O-][n+]1ccccc1[S-].[Zn+2] [pyrithione zinc] | −0.25

same assay, conditions: approximately 10 μM compound, 72 hours; log10 fold change of normalized cell number in glucose versus galactose

Molecule | Sglu/gal (log10 fold change) Score
C[n+]1c2cc(N)ccc2cc2ccc(N)cc21.[Cl-] [acriflavinium hydrochloride] | −0.29
15-norcaryophyllen-3-one | −0.29
CO[C@H]1[C@H](O)[C@H](O[C@H]2CC[C@@]3(C)[C@H](CC[C@@H]4[C@@H]3CC[C@]3(C)[C@@H](C5=CC(=O)OC5)CC[C@]43O)C2)O[C@@H](C)[C@@H]1O [neriifolin] | −0.21
Cl.Cl.O=C1c2c(O)ccc(O)c2C(=O)c2c(NCCNCCO)ccc(NCCNCCO)c21 [mitoxanthrone hydrochloride] | −0.73
COc1ccccc1OCCNCC(O)COc1cccc2[nH]c3ccccc3c12 (stereo not shown) [Carvedilol] | 0.15
O=C(Nc1ccc([N+](=O)[O-])cc1Cl)c1cc(Cl)ccc1O [Niclosamide] | 0.15
CC(C)n1c(/C=C/C(O)CC(O)CC(=O)O)c(-c2ccc(F)cc2)c2ccccc21 (stereo not shown) [Fluvastatin sodium salt] | 0.16
CCCCCCCCCCCCCCCC[N+](C)(C)CCN(Cc1ccc(OC)cc1)c1ncccn1 [Thonzonium bromide] | 0.38
CCN(CC)CCCC(C)Nc1c2ccc(Cl)cc2nc2ccc(OC)cc12 (stereo not shown) [quinacrine hydrochloride] | −0.30
COC(=O)[C@]1(C)CC[C@]2(C)CC[C@]3(C)C4=CCc5c(cc(O)c(O)c5C)[C@]4(C)CC[C@@]3(C)[C@@H]2C1 [pristimerol] | −0.45
CCCCC(CC)CNC(=N)NC(=N)NCCCCCCNC(=N)NC(=N)NCC(CC)CCCC (stereo not shown) [Alexidine dihydrochloride] | 0.44
CCN(CC)CCOc1ccc(C(=C(Cl)c2ccccc2)c2ccccc2)cc1 [Clomiphene citrate] | 0.21
CN[C@H]1CC[C@@H](c2ccc(Cl)c(Cl)c2)c2ccccc21 [Sertraline hydrochloride] | 0.15
N=C(N)c1ccc(OCCCCCOc2ccc(C(=N)N)cc2)cc1 [Pentamidine isethionate] | 0.24
CC(C)=CCCC1(C)C=Cc2c(O)c3c(c(CC=C(C)C)c2O1)OC12C(=CC4CC1C(C)(C)OC2(C/C=C(/C)C(=O)O)C4O)C3=O (stereo not shown) [dihydrogambogic acid] | −0.32
C=C1CC[C@@H]2[C@](C)(CO)[C@H](O)CC[C@@]2(C)[C@@H]1C/C=C1/C(=O)OC[C@H]1O [andrographolide] | −0.46
Cc1cc(N)c2ccccc2[n+]1CCCCCCCCCC[n+]1c(C)cc(N)c2ccccc21 [Dequalinium dichloride] | 0.42
CC[C@]1(O)C[C@@H]2CN(CCc3c([nH]c4ccccc34)[C@@](C(=O)OC)(c3cc4c(cc3OC)N(C)[C@H]3[C@@](O)(C(=O)OC)[C@H](OC(C)=O)[C@]5(CC)C=CCN6CC[C@]43[C@@H]65)C2)C1 [vinblastine sulfate] | −0.27
OC(c1cc(C(F)(F)F)nc2c(C(F)(F)F)cccc12)C1CCCCN1 (stereo not shown) [Mefloquine] | 0.20
C=C1C(=O)O[C@@H]2C[C@@]3(C)CCC[C@H](C)C3=C[C@H]12 [helenine] | −0.22
Clofilium tosylate | 0.42
CN1CCC[C@@H]1CCO[C@](C)(c1ccccc1)c1ccc(Cl)cc1 [Clemastine fumarate] | 0.19
CN(C/C=C/c1ccccc1)Cc1cccc2ccccc12 [Naftifine hydrochloride] | 0.19
CC(C)N(C(=O)CCl)c1ccccc1 [propachlor] | −0.26
CC(C)c1c(O)ccc2c1CCC1C(C)(C(=O)O)CCCC21C (stereo not shown) [Totarol-19-carboxylic acid] | 0.80
COc1cc2c(cc1OC)C1C(=O)c3c(cc4c(c3O)C=CC(C)(C)O4)OC1CO2 (stereo not drawn) [Beta-toxicarol] | 0.82
CC1(C)C(=O)C=C[C@@]2(C)C1=C(O)C(=O)[C@]1(C)[C@@H]2CC[C@@]2(C)[C@H](c3ccoc3)C[C@H]3O[C@]321 [cedrelone] | −0.22

Molecule | Sglu/gal (log10 fold change) Score
CO[C@@H]1C[C@@H](C[C@H]2CC[C@H](C)[C@H]([C@@H](C)C(=O)O)O2)O[C@]2(O[C@](C)([C@H]3CC[C@@](C)([C@@H]4O[C@@H]([C@H]5O[C@@](O)(CO)[C@H](C)C[C@@H]5C)C[C@@H]4C)O3)C[C@H]2C)[C@@H]1C [nigericin sodium] | −0.31
COc1cc2c(cc1OC)[C@@H]1C(=O)c3ccc(OC)c(CC=C(C)C)c3O[C@@H]1CO2 [Rotenonic acid, methyl ether] | 0.34
CC(=O)O[C@H]1CC[C@@]2(C)[C@H](CC[C@@H]3[C@@H]2CC[C@]2(C)[C@@H](C4=CC(=O)OC4)[C@@H](OC(C)=O)C[C@]32O)C1 [gitoxigenin diacetate] | −0.21
CCCCCCc1ccc(O)cc1O.Nc1c2ccccc2nc2ccccc12 [acrisorcin] | −0.36
CC[n+]1c(-c2ccccc2)c2cc(N)ccc2c2ccc(N)cc21 [homidium bromide] | −0.54
O=c1[nH]c2ccccc2n1C1CCN(CCCC(c2ccc(F)cc2)c2ccc(F)cc2)CC1 [Pimozide] | 0.18
CC1=C(O)C(=O)C=C2C1=CC=C1[C@@]2(C)CC[C@@]2(C)[C@@H]3C[C@](C)(C(=O)O)CC[C@]3(C)CC[C@]12C [celastrol] | −0.29
COC(=O)[C@]1(C)CC[C@]2(C)CC[C@]3(C)C4=CC=C5C(=CC(=O)C(O)=C5C)[C@]4(C)CC[C@@]3(C)[C@@H]2C1 [pristimerin] | −0.37
COc1cc2c(cc1OC)[C@@H]1C(=O)c3ccc4c(c3O[C@@H]1CO2)CC(C(C)C)O4 (stereo partly drawn) [Beta-dihydrorotenone] | 0.85
COc1cc2c(cc1OC)[C@@H]1C(=O)c3ccc4oc(C(C)C)cc4c3O[C@@H]1CO2 [Isorotenone] | 0.71
COc1cc(C(=O)O)c2c(c1C)OC(=O)c1c(C)cc(O)c(C=O)c1O2 [Psoromic acid] | 0.35
COc1ccc(Cc2nccc3cc(OC)c(OC)cc23)cc1OC [Papaverine hydrochloride] | 0.30
C[C@]12CC[C@H](O)C[C@H]1CC[C@@H]1[C@@H]2[C@H](O)C[C@]2(C)[C@@H](C3=CC(=O)OC3)CC[C@]12O [sarmentogenin] | −0.21
Cc1c(O)c(O)cc2c1CC=C1[C@@]2(C)CC[C@@]2(C)[C@@H]3C[C@](C)(C(=O)O)CC[C@]3(C)CC[C@]12C [dihydrocelastrol] | −0.31
Nc1c2ccccc2nc2ccccc12 [aminacrine] | −0.29
Cc1cc(C(C)(C)CC(C)(C)C)ccc1OCCOCC[N+](C)(C)Cc1ccccc1.[Cl-] [Methyl benzethonium chloride] | 0.80
COc1cc2c(c(OC)c1OC)-c1ccc(OC)c(=O)cc1[C@@H](NC(C)=O)CC2 [Colchicine] | −0.26
CC[C@@]1(O)C(=O)OCc2c1cc1n(c2=O)Cc2cc3ccccc3nc2-1 [camptothecin] | −0.26
CC[C@H]1CN2CCc3cc(OC)c(OC)cc3[C@@H]2C[C@@H]1C[C@H]1NCCc2cc(OC)c(OC)cc21 [emetine] | −0.22
CC1(C)C(=O)C=C[C@]2(C)[C@H]3CC[C@@]4(C)[C@H](c5ccoc5)OC(=O)[C@H]5O[C@]54[C@]3(C)C=C[C@@H]12 [7-desacetoxy-6,7-dehydrogedunin] | −0.22
C[C@H]1CC[C@]2(NC1)O[C@H]1C[C@H]3[C@@H]4CC[C@H]5C[C@@H](O[C@@H]6O[C@H](CO)[C@H](O[C@@H]7O[C@H](CO)[C@@H](O)[C@H](O[C@@H]8OC[C@@H](O)[C@H](O)[C@H]8O)[C@H]7O[C@@H]7O[C@H](CO)[C@@H](O)[C@H](O)[C@H]7O)[C@H](O)[C@H]6O)CC[C@]5(C)[C@H]4CC[C@]3(C)[C@H]1[C@@H]2C [tomatine] | −0.64
CO[C@H]1C=C[C@@]23c4cc5c(cc4CN(C[C@@H]2O)[C@H]3C1)OCO5 [crinamine] | −0.22
COc1cc2c(cc1OC)[C@@H]1C(=O)c3ccc(O)c(CC=C(C)C)c3O[C@@H]1CO2 [Rotenonic acid] | 0.33
CCCCc1ccc2[nH]c(NC(=O)OC)nc2c1 [Parbendazole] | −0.24
CN(C)CCC=C1c2ccccc2C=Cc2ccccc21 [Cyclobenzaprine hydrochloride] | 0.13
CC[C@@]1(O)C[C@H](O[C@H]2C[C@H](N(C)C)[C@H](O)[C@H](C)O2)c2c(cc3c(c2O)C(=O)c2c(O)cccc2C3=O)[C@H]1C(=O)OC [aklavine hydrochloride] | −0.33

same assay, conditions: approximately 10 μM compound, 72 hours; log10 fold change of normalized cell number in glucose versus galactose; listed as Methylbenzethonium chloride

Molecule | Sglu/gal (log10 fold change) Score
Cc1cc(C(C)(C)CC(C)(C)C)ccc1OCCOCC[N+](C)(C)Cc1ccccc1.[Cl-] [Methyl benzethonium chloride] | 0.46

same assay, conditions: galactose versus glucose

Molecule | inhibitory activity against cell growth in galactose (SAR analysis)
CN1CCN(C(c2ccccc2)c2ccc(Cl)cc2)CC1 (stereo not shown) [chlorcyclizine] | more potent than that of homopiperazine analogue
CNCCC=C1c2ccccc2CCc2ccccc21 [nortriptyline] | moderate inhibitory activity
